Measured values published in PMC2680961, “Homologous desensitization of signalling by the alpha (α) isoform of the human thromboxane A2 receptor: A specific role for nitric oxide signalling” (Biochimica et Biophysica Acta, 2007).

Assays:
[1] = target: T1, TP^Δ328 (Homo sapiens, UniProt P21731); assay: [3H]SQ29,548 radioligand binding, Scatchard analysis, HEK.TP^Δ328
T1 construct: expressed in transfected cells
T1 sequence (P21731 1-328): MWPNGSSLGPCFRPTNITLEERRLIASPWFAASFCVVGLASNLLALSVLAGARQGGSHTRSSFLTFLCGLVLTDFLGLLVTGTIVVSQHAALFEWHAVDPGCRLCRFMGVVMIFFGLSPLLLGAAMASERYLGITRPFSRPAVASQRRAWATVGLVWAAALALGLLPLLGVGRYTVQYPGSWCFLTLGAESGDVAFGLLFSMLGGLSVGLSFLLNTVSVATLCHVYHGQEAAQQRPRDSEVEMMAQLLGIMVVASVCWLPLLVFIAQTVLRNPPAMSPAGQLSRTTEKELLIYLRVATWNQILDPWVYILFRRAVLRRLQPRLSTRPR
Description: (§1) Cells were harvested by centrifugation at 500×g at 4 °C for 5 min and washed three times with ice-cold Ca^2+/Mg^2+-free phosphate-buffered saline (PBS). TP radioligand binding assays were carried out at 30 °C for 30 min in 100 μl reactions in the presence of 0–40 nM [^3H] […] Protein determinations were carried out using the Bradford assay.
(§2) Radioligand binding and Scatchard analysis data were analysed using GraphPad Prisim V4.0 programme (GraphPad Software Inc., San Diego CA, USA). Statistical analyses were carried out using the unpaired Student's t test using the Statworks Analysis Package. p-values ≤ 0.01 indicated statistically significant differences.

[2] = target: T2, TPα^S340A (Homo sapiens, UniProt P21731, S340A); assay: [3H]SQ29,548 radioligand binding, Scatchard analysis, HEK.TPα^S340A
T2 construct: expressed in transfected cells
T2 sequence (P21731 1-343 S340A): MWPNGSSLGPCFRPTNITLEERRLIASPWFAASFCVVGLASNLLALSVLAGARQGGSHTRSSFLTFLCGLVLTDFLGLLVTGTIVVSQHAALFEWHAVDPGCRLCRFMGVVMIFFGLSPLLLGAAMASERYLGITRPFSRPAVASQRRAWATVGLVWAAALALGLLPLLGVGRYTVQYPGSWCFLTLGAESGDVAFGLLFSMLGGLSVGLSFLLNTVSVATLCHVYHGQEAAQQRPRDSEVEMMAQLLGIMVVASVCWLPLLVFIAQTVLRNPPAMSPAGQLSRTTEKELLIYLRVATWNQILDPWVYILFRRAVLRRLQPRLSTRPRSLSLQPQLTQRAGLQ
Description: as §1, §2

[3] = system: eNOS; assay: eNOS phosphorylation (anti-phospho eNOS^Ser1177 western blot); format: cell-based, human; details: HEK.TPα cells (also HEK 293, HEK.TPβ); 1 μM U46619 or 10 U/ml Thrombin, 5 min, 37 °C
Description: In order to assess eNOS phosphorylation, HEK.TPα, HEK.TPβ or HEK 293 cells (2 × 10^6 cells/10-cm dish) were plated some 48 h prior to experimentation. Cells were incubated with vehicle, 1 μM U46619 or 10 U/ml Thrombin for 5 min at 37 °C and aliquots of whole cell protein (100 μg/lane) were analysed by SDS-PAGE/western blot. Blots were initially screened using the anti-phospho eNOS^1177 as per supplier's instructions (Cell Signalling Technology) and, following stripping, were subsequently re-screened using the anti-eNOS (Transduction Laboratories).

[4] = system: TPα^S145,S331,T337A; assay: Intracellular calcium mobilization, HEK.TPα^S145,S331,T337A cells; format: cell-based, human; details: data not shown
Description: Measurement of intracellular calcium mobilization ([Ca^2+]i) in FURA2/AM preloaded HEK 293 cell lines (2 × 10^6 cells/dish), each transiently co-transfected with pADVA (10 μg), and pCMV:Gαq (25 μg), was carried out as previously described. To investigate the effect of GRK2/βARK1 on TP-mediated [Ca^2+]i mobilization, HEK.TPα or HEK.TPβ cells (2 × 10^6 cells/dish) were co-transfected with pADVA (10 μg), pCMV:Gαq (25 μg) along with pRK5:βARK1^495–689 (25 μg), encoding a dominant negative form of GRK2/βARK1[39]. […] For each measurement of [Ca^2+]i mobilization, aliquots of cells were diluted to 0.825 × 10^6 cells/ml in HBSSHB, 1 mM CaCl2 and FURA2 fluorescence was recorded (2 ml aliquots of cells) at 37^ °C with gentle stirring with a Perkin Elmer-Cetus LS50-B spectrofluorometer at excitation wavelengths of 340 nm and 380 nm and emission wavelength of 510 nm, respectively.
Cells were stimulated with the TP agonist U46619 (1 μM) and changes in [Ca^2+]i mobilization were monitored as a function of time. […]
The vehicle had no effect on U46619-mediated [Ca^2+]i mobilization. Calibration of the signal was performed in each sample by adding 0.2% Triton X-100 to obtain the maximal fluorescence ratio (Rmax) and then 1 mM EGTA to obtain the minimal fluorescence ratio (Rmin). […]

Row | Bmax (pmol/mg protein ± S.E.M.) [1] | Bmax (pmol/mg protein ± S.E.M.) [2] | SMILES | eNOS phosphorylation at Ser^1177 [3] | secondary U46619 [Ca2+]i response relative to primary response [4]
1 | 4.47 ± 0.04 pmol/mg protein | 5.3 ± 0.04 pmol/mg protein | O=C(O)CCC/C=C\C[C@@H]1[C@H](CNNC(=O)Nc2ccccc2)[C@H]2CC[C@@H]1O2 [SQ29,548] |  | 
2 |  |  | CCCCC[C@H](O)/C=C/[C@@H]1[C@@H](C/C=C\CCCC(=O)O)[C@H]2CO[C@@H]1C2 [U46619] | rapid phosphorylation-dependent activation of eNOS | 55%
